pIC50, pKd: −log10 of the molar value. ≈ marks a conversion by molar mass, not a printed value.

The text below walks through data of ChEMBL document CHEMBL1151443, “Activity of the novel macrolide BAL19403 against ribosomes from erythromycin-resistant Propionibacterium acnes” (Antimicrob Agents Chemother, 2007).

Experiment [1] concerns Cutibacterium acnes. In words: Antibacterial activity against erythromycin-resistant Propionibacterium acnes GE4E carrying Erm(X) gene. The class given is functional.
Experiment [2] in a line: Inhibition of ribosomal activity in erythromycin-sensitive Escherichia coli BL21 S30 extracts assessed as inhibition of luciferase activity by transcriptional and translational assay. In kind it is subcellular, Ribosome.
The test system of experiment [3] is Cutibacterium acnes. In words: Antibacterial activity against erythromycin-resistant Propionibacterium acnes with G2057A mutation in domain V of 23S rRNA. The class given is functional.
For experiment [4], the system named is Cutibacterium acnes. Kind of experiment: Antibacterial activity against erythromycin-resistant Propionibacterium acnes with A2058G mutation in domain V of 23S rRNA. The class given is functional.
For experiment [5], the system named is Cutibacterium acnes. In words: Antibacterial activity against erythromycin-sensitive Propionibacterium acnes EG7NS. The class given is functional.
For experiment [6], the target named is Bacterial 70S ribosome. In words: Inhibition of ribosomal activity in erythromycin-resistant Propionibacterium acnes P95 with G2057A mutation in domain V of 23S rRNA assessed as luciferase production by transcriptional and translational assay. The class given is subcellular, Cutibacterium acnes.
Experiment [7] relates to Cutibacterium acnes. In words: Antibacterial activity against erythromycin-resistant Propionibacterium acnes P95 with 23S rRNA G2057A mutant. The class given is functional.
The subject of experiment [8] is Cutibacterium acnes. In words: Antibacterial activity against erythromycin-resistant Propionibacterium acnes with A2059 mutation in domain V of 23S rRNA. In kind it is functional.
In experiment [9] the target is Bacterial 70S ribosome. In words: Inhibition of ribosomal activity in erythromycin-sensitive Escherichia coli BL21 assessed as luciferase production by transcriptional and translational assay. The class given is subcellular.
In experiment [10] the target is Bacterial 70S ribosome. Kind of experiment: Inhibition of ribosomal activity in erythromycin-sensitive Propionibacterium acnes EG7NS assessed as luciferase production by transcriptional and translational assay. In kind it is subcellular, Cutibacterium acnes.
Experiment [11] deals with Bacterial 70S ribosome. Kind of experiment: Inhibition of ribosomal activity in erythromycin-resistant Propionibacterium acnes SW54EA with A2058G mutation in domain V of 23S rRNA assessed as luciferase production by transcriptional and translational assay. In kind it is subcellular, Cutibacterium acnes.
Another experiment deals with Escherichia coli. In words: Antibacterial activity against Escherichia coli BL21. The class given is functional.
Experiment [12] deals with Bacterial 70S ribosome. In words: Displacement of [14C]ERY from erythromycin-sensitive Escherichia coli BL21 ribosome. In kind it is subcellular. For orientation: In a radioligand displacement assay an active substance lowers the binding of a labelled ligand.
Experiment [13] has as its target Bacterial 70S ribosome (Bacteria) (UniProt P0A7V0+P60723+P0AG67+P0A7R5+P0A7R9+P0A7S3+P0A7S9+P0AG59+P0ADZ4+P0A7T3+P0AG63+P0A7T7+P0A7U3+P0A7U7+P68679+P0A7V3+P0A7V8+P0A7W1+P02358+P02359+P0A7W7+P0A7X3+P0A7J3+P0A7J7+P0AA10+P0ADY3+P02413+P0ADY7+P0AG44+P0C018+P0A7K6+P0A7L0+P0A7L3+P0AG48+P61175+P0ADZ0+P60624+P68919+P0A7L8+P0A7M2+P0A7M6+P60422+P0AG51+P0A7N1+P0A7M9+P0A7N4+P0A7N9+P0A7P5+P0A7Q1+Q2EEQ2+P0A7Q6+P60438+P62399+P0AG55+P0A7K2). Kind of experiment: (§1) Inhibition of ribosomal activity in erythromycin-resistant Propionibacterium acnes GE4E carrying Erm(X) gene assessed as luciferase production by transcriptional and translational assay. In kind it is subcellular. The settings on record: Cutibacterium acnes, concentration not given here.

Experiment [14] deals with Bacterial 70S ribosome. Described as §1. In kind it is subcellular, Cutibacterium acnes.
The target of experiment [15] is Bacterial 70S ribosome. Kind of experiment: Displacement of [14C]ERY from erythromycin-sensitive Propionibacterium acnes EG7NS ribosome. In kind it is subcellular, Cutibacterium acnes.
For experiment [16], the target named is Bacterial 70S ribosome. In words: Displacement of [14C]ERY from ribosome in erythromycin-resistant Propionibacterium acnes P95 with G2057A mutation in domain V of 23S rRNA. In kind it is subcellular, Cutibacterium acnes.
In experiment [17] the test system is Cutibacterium acnes. Kind of experiment: Antibacterial activity against erythromycin-resistant Propionibacterium acnes SW54EA with 23S rRNA A2058G mutant. The class given is functional.

For `CC[C@H]1OC(=O)[C@H](C)[C@@H](O[C@H]2C[C@@](C)(OC)[C@@H](O)[C@H](C)O2)[C@H](C)[C@@H](O[C@@H]2O[C@H](C)C[C@H](N(C)C)[C@H]2O)[C@](C)(O)C[C@@H](C)C(=O)[C@H](C)[C@@H](O)[C@]1(C)O` [ERYTHROMYCIN], the MIC in the experiment on Cutibacterium acnes [1] was more than 512 µg/mL; against Cutibacterium acnes [3] it was 1 µg/mL (≈ 1.36 µM); in the experiment with Cutibacterium acnes [4], more than 128 µg/mL; against Cutibacterium acnes [5], not above 0.06 µg/mL; in the experiment with Cutibacterium acnes [7] it was 4 µg/mL (≈ 5.45 µM); against Cutibacterium acnes [8], more than 128 µg/mL. Also, the minimum inhibitory concentration (MIC) in the experiment with Escherichia coli is 128 µg/mL (≈ 174 µM); with Cutibacterium acnes [17] it was more than 512 µg/mL. Also, the pIC50 in experiment [2] was 5.67; on Bacterial 70S ribosome [6], 5.66; on Bacterial 70S ribosome [9], 6.12; at Bacterial 70S ribosome [10], 6.77; at Bacterial 70S ribosome [11] it was 4.06; on Bacterial 70S ribosome [14] it was 5.72. Besides, the negative logarithm of the Kd (pKd) at Bacterial 70S ribosome [12] was 7.96; at Bacterial 70S ribosome [15] it was 7.54; on Bacterial 70S ribosome [16], less than 5.68. In addition, the inhibition in experiment [13] was 52%.

In the case of `CC[C@H]1OC(=O)[C@H](C)[C@@H](O[C@H]2C[C@@](C)(OC)[C@@H](O)[C@H](C)O2)[C@H](C)[C@@H](O[C@@H]2O[C@H](C)C[C@H](N(C)C)[C@H]2O)[C@](C)(OC)C[C@@H](C)C(=O)[C@H](C)[C@H]2[C@H](SCCn3cnc4cccnc43)C(=O)O[C@@]21C`, the pIC50 in experiment [2] was 6.07; on Bacterial 70S ribosome [6], 6.92; on Bacterial 70S ribosome [9], 6.38; at Bacterial 70S ribosome [10], 6.96; at Bacterial 70S ribosome [11], 6.59; at Bacterial 70S ribosome [14] it was 6.72. In addition, on Bacterial 70S ribosome [12], the pKd is 7.59. Further, in [13], the inhibition stood at 48%.

As usually defined, the MIC is the least concentration at which growth counts as inhibited. As usually defined, the pIC50 is −log10 of the IC50, conventionally taken in molar units. For orientation: pKd means −log10 of the Kd, conventionally taken in molar units. Broadly, the inhibition is the relative decrease from the control value, in per cent.
